Assays:
Fibroblasts = experiment: BioMAP HDFT system (TGF-β), scoring of readout parameters; format: cell-based, human; set-up: key to PAI-1 score: 1 = modulated in desired direction, 0 = not (no penalties applied); conditions: for PAI-1 score: HDFT, desired change decrease; for inhibit PAI-1 in the HDFT system: indication of TGF-b signaling inhibition without being cytotoxic
Excerpt: (§1) Each screened compound is scored according to its modulation of the selected readout parameters. Compounds receive a positive score (score of 1) or negative score (score of 0) for each readout parameter set forth in Table 2 that is modulated in the desired direction. […] Parameters may be penalized by making the positive score a −1 for parameters where regulation is opposite to the desired direction.
Compounds were first selected to inhibit PAI-1 in the HDFT as an indication of TBF-b signaling inhibition without being cytotoxic. […] Blank spots in Table 3 were where parameter was not assayed. Penalties were not applied for this scoring.
(§2) Cell culture. Human umbilical vein endothelial cells (HUVEC) were pooled from multiple donors, cultured according to standard methods, and plated into microtiter plates at passage 4. Cell culture medium for all systems containing HUVEC included hydrocortisone. Coronary artery smooth muscle cells (CASM3C) and umbilical artery smooth muscle cells (HSM3C) were cultured according to standard procedures. Peripheral blood mononuclear cells (PBMC) were prepared from buffy coats from normal human donors according to standard methods. Monocyte-derived macrophages were differentiated in the presence of M-CSF for 7 d according to standard procedures. Human dermal fibroblasts were pooled from 3 donors, cultured according to standard methods, and plated confluent 24 h before stimulation. Cell culture medium for all systems containing fibroblasts and keratinocytes contained low hydrocortisone. Epidermal keratinocytes and bronchial epithelial cells from 3 donors were cultured according to standard procedures and pooled when plated into microtiter plates. For keratinocyte-fibroblast co-cultures, cells were plated simultaneously 24 h before stimulation. For bronchial epithelial cell-fibroblast co-cultures, fibroblasts were plated and cultured 48 before addition of epithelial cells, then cultured another 24 hr before stimulation. Concentrations/amounts of agents added to confluent microtiter plates to build each system: cytokines (IL-1β, 1 ng/ml; TNF-α, 5 ng/ml; IFN-γ, 20 ng/ml; IL-4, 5 ng/ml), activators (SAg, 20 ng/ml; histamine, 10 μM; zymosan, 10 μg/ml; or LPS, 2 ng/ml), growth factors (TGF-β, 5 ng/ml; EGF, bFGF, and PDGF-BB, 10 ng/ml), and PBMC (7.5×10^4 cells/well) or macrophages (3.5×10^4 cells/well).
(§3) Compounds. Compounds were prepared in the solvent directed, added 1 hr before stimulation of the cells, and were present during the 24 hr stimulation period for the measurement of parameters listed in Table 2. For proliferation, compounds added 1 hr before stimulation of the cells with cytokines, and were present during the 48 to 72 hr assay. If prepared in DMSO, the final concentration of solvent was 0.1% or less.
(§4) Readout Parameter Measurements. The levels of readout parameters were measured by ELISA. Briefly, microtiter plates are treated, blocked, and then incubated with primary antibodies or isotype control antibodies (0.01-0.5 microg/ml) for 1 hr. After washing, plates were incubated with a peroxidase-conjugated anti-mouse IgG secondary antibody or a biotin-conjugated anti-mouse IgG antibody for 1 hr followed by streptavidin-HRP for 30 min. Plates were washed and developed with TMB substrate and the absorbance (OD) was read at 450 nm (subtracting the background absorbance at 650 nm). Quantitation of TNF-alpha or PGE2 in the LPS system was done using a commercially available kit according to the manufacturer's directions. Proliferation of endothelial cells (HUVEC and CAEC), smooth muscle cells (SMC and CASMC), and PBMC (T cells) was quantitated by Alamar Blue reduction or SRB.
(§5) Data analysis. Mean OD values for each parameter were calculated for compounds run in duplicate. The mean value (or single well OD value) for each parameter in a treated sample was then divided by the mean value from an appropriate control to generate a ratio.

[1] = tested on: Umbilical Vein Endothelial Cells; experiment: BioMAP 3C system (IL-1β + TNF-α + IFN-γ), scoring of readout parameters; format: cell-based, human; conditions: for HLA-DR score: desired change decrease; for uPAR score: desired change increase
Excerpt: as §1, §2, §3, §4
as §5, with “ratio. All ratios were then log10 transformed. 95% significance prediction envelopes (grey shading in Figures) were calculated for historical controls.” for “ratio.”

| Molecule | PAI-1 score (Fibroblasts) | HLA-DR score [1] | uPAR score [1] | inhibit PAI-1 in the HDFT system (Fibroblasts) |
| --- | --- | --- | --- | --- |
| CCc1oc2ccccc2c1C(=O)c1cc(Br)c(O)c(Br)c1 [Benzbromarone] | 1 | 0 | 0 |  |
| O=c1cc(-c2ccc(O)c(O)c2)oc2cc(O)cc(O)c12 [Luteolin] | 1 | 0 | 0 |  |
| CCCCN(CCCC)CCC(O)c1cc2c(Cl)cc(Cl)cc2c2cc(C(F)(F)F)ccc12 (stereo not drawn) [Halofantrine] | 1 | 0 | 0 |  |
| Fc1ccc(C(OCCN2CCN(CCCc3ccccc3)CC2)c2ccc(F)cc2)cc1 [GBR 12909] | 1 | 0 | 0 |  |
| COc1cc2c(c(OC)c1OC)-c1ccc(OC)c(=O)cc1[C@@H](NC(C)=O)CC2 [Colchicine] | 0 | 0 | 0 | none of these inhibit PAI-1 |
| CCN(CC)CCNc1ccc(CO)c2sc3ccccc3c(=O)c12 [Hycanthone] | 1 | 0 | 0 |  |
| C[C@]12C=CC(=O)C=C1CC[C@@H]1[C@@H]2[C@@H](O)C[C@@]2(C)[C@H]1CC[C@]2(O)C(=O)CO [Prednisolone] | 0 | 1 | 0 | none of these inhibit PAI-1 |
| Cc1c(Cl)cccc1Nc1ccccc1C(=O)O [Tolfenamic Acid] | 1 | 0 | 0 |  |
| (R)-(−)-Apomorphine | 1 | 0 | 0 |  |
| Cn1cnc([N+](=O)[O-])c1Sc1ncnc2nc[nH]c12 [Azathioprine] | 0 | 0 | 0 | none of these inhibit PAI-1 |
| O=C(O)c1ccccc1Nc1cccc(C(F)(F)F)c1 [Flufenamic Acid] | 1 | 0 | 0 |  |
| Antimycin A | 1 | 0 | 0 |  |
| COc1cc(-c2ccc(=O)[nH]n2)ccc1OC(F)F [Zardaverine] | 1 | 0 | 0 |  |
| C=C1CC[C@H](O)C/C1=C/C=C1\CCC[C@]2(C)[C@@H]([C@H](C)/C=C/[C@H](C)C(C)C)CC[C@@H]12 [Calciferol] | 1 | 0 | 1 |  |
| COC(=O)Nc1nc2ccc(SC(C)C)cc2[nH]1 [Methiazole] | 1 | 0 | 0 |  |

— patent publication US20100093613A1, “METHODS FOR IDENTIFYING AGENTS AND THEIR USE FOR THE PREVENTION OR STABILIZATION OF FIBROSIS” (priority 2007, published 2010)
